Reference: patent US20240057600A1, “METHODS FOR CONTROLLING OR PREVENTING INFESTATION OF PLANTS BY A PHYTOPATHOGENIC MICROORGANISM OF THE GENUS ASPERGILLUS” (priority 2020, published 2024)
Converted amounts (≈) assume the structure as drawn. Where two headings read alike, the source gives them in different places.

How the values were obtained:
Aspergillus niger = assay: Peanut field trial, seed treatment, pest incidence 42 days after planting; type: in vivo, Aspergillus niger on Arachis hypogaea (peanut)
Experimental: A peanut field trial was carried out on May 11, 2020 in Malpur, Gujarat, India, to evaluate the efficacy of different compounds against Aspergillus sp. fungi. The disease symptoms started to occur 4 weeks after planting and an assessment on disease incidence (% infected plants) was done 42 days after planting.
Pest Incidence, 42 Days after Planting

[1] = system: Aspergillus flavus isolates; assay: In vitro mycelial growth inhibition assay on amended agar; type: cell-based; settings: 120 h, 5 days incubation, 22 C
Experimental: (§1) The sensitivity to cyclobutrifluram of 104 isolates of Aspergillus niger and 31 isolates of Aspergillus flavus was determined under in vitro lab conditions using a mycelial growth inhibition assay. Isolates of Aspergillus niger were retrieved from infected seeds or infected plants with clear symptoms of crown rot disease. Isolates of Aspergillus flavus were collected from infected seeds. The sensitivity to azoxystrobin of the isolates was determined under in vitro conditions using a conidial germination inhibition assay. Sensitivity tests were conducted in vitro using agar medium amended with cyclobutrifluram or azoxystrobin at the following concentrations: 0, 0.001, 0.01, 0.1, 1, and 10 mg a.i./L. The plates were incubated at room temperature (22 C). The mycelial growth of the colonies growing on plates amended or not with cyclobutrifluram was determined after 5 days of incubation. The conidial germination on agar plates amended or not with azoxystrobin was determined after 18 hours of incubation. A conidium was rated as germinated, if a normally developing germ tube had at least the length of a conidium. […] Effective dose values (EC50) are expressed in mg of cyclobutrifluram or azoxystrobin active ingredient/L. [table] [table]

[2] = system: Aspergillus niger isolates; assay: as above; type: cell-based; settings: 120 h, 5 days incubation, 22 C
Experimental: as §1

[3] = system: Aspergillus flavus isolates; assay: In vitro conidial germination inhibition assay on amended agar; type: cell-based; settings: 31 A. flavus isolates, 18 hours incubation; for EC50 values, maximum: highest concentration used 10 mg a.i./L
Experimental: as §1

[4] = system: Aspergillus niger isolates; assay: as above; type: cell-based; settings: 104 A. niger isolates, 18 hours incubation; for EC50 values, minimum: 22 C; for EC50 values, maximum: highest concentration used 10 mg a.i./L
Experimental: as §1

| EC50 ([1]; 31 A. flavus isolates, read-out: EC50 values, maximum) | EC50 ([1]; 31 A. flavus isolates, read-out: EC50 values, minimum) | EC50 ([2]; 104 A. niger isolates, read-out: EC50 values, maximum) | EC50 ([2]; 104 A. niger isolates, read-out: EC50 values, minimum) | Compound | Pest incidence (LS Means) (Aspergillus niger; peanut GG 20, field trial Malpur, Gujarat, India, seed treatment, 42 days after planting, rates g AI/100 kg: VITAVAX 225, cyclobutrifluram 60, VIBRANCE MAXX 150, EVERGOL XTEND 30.8) | % efficacy based on disease incidence (Aspergillus niger; peanut GG 20, field trial, seed treatment, 42 days after planting, rates g AI/100 kg: VITAVAX 225, cyclobutrifluram 60, VIBRANCE MAXX 150, EVERGOL XTEND 30.8) | Aspergillus niger pest incidence compared to the untreated and standard treatments (Aspergillus niger; treatment 3, 60 g AI/100 kg seed treatment, 42 days after application) | EC50 ([1]; 31 A. flavus isolates from infected peanut seeds, read-out: EC50 values, mean (geometric mean)) | EC50 ([2]; 104 A. niger isolates from infected peanut seeds or plants, read-out: EC50 values, mean (geometric mean)) | EC50 values, minimum ([3]; 22 C) | EC50 values, maximum [3] | EC50 values, maximum ([3]; listed as azoxystrobin) | EC50 values, minimum [4] | EC50 values, minimum ([4]; listed as azoxystrobin) | EC50 values, maximum [4] | EC50 values, maximum ([4]; listed as azoxystrobin) |
| --- | --- | --- | --- | --- | --- | --- | --- | --- | --- | --- | --- | --- | --- | --- | --- | --- |
| 0.7 µg/mL (≈ 1.8 µM) | 0.0262 µg/mL (≈ 0.0673 µM) | 0.703 µg/mL (≈ 1.81 µM) | 0.00924 µg/mL (≈ 0.0238 µM) | O=C(N[C@@H]1CC[C@@H]1c1ccc(Cl)cc1Cl)c1cccnc1C(F)(F)F (racemic) [Cyclobutrifluram, cyclobutrifluram] | 0.42, % infected plants | 97.03% | significantly lower | 0.108 µg/mL (≈ 0.277 µM) | 0.082 µg/mL (≈ 0.211 µM) | – | – | – | – | – | – | – |
| – | – | – | – | CO/C=C(/C(=O)OC)c1ccccc1Oc1cc(Oc2ccccc2C#N)ncn1 [Azoxystrobin, azoxystrobin] | – | – | – | – | – | 0.003457 mg · ai/L | >10 mg · ai/L | more than 10 mg · ai/L | <0.001 mg · ai/L | 0.000793 mg · ai/L | >10 mg · ai/L | more than 10 mg · ai/L |
